Key:
[1] = test system: pY705-STAT3 in Peripheral Blood Mononuclear Cells (PBMC); experiment: MSD-pSTAT-PBMC Assay (pSTAT3, IL-6 stimulated); type: cell-based, Human; conditions: Homo sapiens, compound 3 hrs, then 10 ng/mL IL-6 for 10 min
From the text: Cryopreserved Peripheral Blood Mononuclear Cells (PBMC) are from AllCells. Recombinant Human IL-4 and IL-6 are from Peprotech. Mouse monoclonal anti-STAT3 antibody, rabbit monoclonal anti-pY705-STAT3 antibody, rabbit monoclonal Anti-pY641-STAT6 antibody, and lysis buffer are from Cell Signaling Technology (CST). Mouse monoclonal anti-STAT6 antibody is from BioLegend. Assay plates, blocker, and anti-rabbit secondary antibody are from Meso Scale Discovery (MSD).
Cryopreserved PBMCs were thawed out and allowed to recover overnight in IMDM+10% heat-inactivated FBS prior to plating 50,000 (STAT3) or 25,000 (STAT6) cells per well in 96-well U-bottom tissue culture plates. Cells were treated with compound for 3 hrs, then stimulated with 10 ng/mL IL-6 (STAT3) or 1 ng/mL IL-4 (STAT6) for 10 min. Cells were then spun down and washed with ice-cold PBS prior to lysing the cell pellet with 1× lysis buffer (CST) with 1×HALT protease and phosphatase inhibitor cocktail (Thermo). Lysates were transferred to and incubated overnight at 4° C. with shaking in QuickPlex 96-well high bind assay plates (MSD) pre-coated overnight with 30 μL per well of 0.6 μg/mL mouse monoclonal anti-STAT3 antibody (STAT3) or 2 μg/mL mouse monoclonal anti-STAT6 antibody (STAT6) in 1×PBS, and pre-blocked for 1 hour with 3% Blocker-A (MSD). Captured protein in the assay plates were then washed and probed with 25 μL per well of 0.25 μg/ml rabbit monoclonal anti-pY705-STAT3 antibody (STAT3) or […] rabbit monoclonal Anti-pY641-STAT6 antibody (STAT6) in 1% Blocker-A for 1 hour at room temperature with shaking, then washed and probed with 25 ul per well of 1 ug/ml Sulfo-TAG Labeled Goat Anti-Rabbit Antibody (MSD) in 1% Blocker-A for 1 hour at room temperature with shaking. Assay plates were then washed and 150 μL of 1× Read Buffer-T (MSD) was added to each well prior to reading on an SQ120 MSD Plate Reader. Assay signal from each sample was subtracted by the signal from unstimulated control wells and normalized to DMSO control wells. IC50 values were calculated using Graph Pad Prism Dose-Response Nonlinear Regression with variable slope. For both pSTAT3 and pSTAT6 A=≤100 nM; B=>100-1000 nM; C=>1000-3000 nM; and D=>3 μM.

[2] = test system: pY641-STAT6 in Peripheral Blood Mononuclear Cells (PBMC); experiment: MSD-pSTAT-PBMC Assay (pSTAT6, IL-4 stimulated); type: cell-based, Human; conditions: Homo sapiens, compound 3 hrs, then 1 ng/mL IL-4 for 10 min
Procedure, shortened: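 Phospho-STAT readout used MSD electrochemiluminescence with total STAT3 or STAT6 capture in lysates of cryopreserved human PBMCs. Cells had 3 h compound exposure before a 10 min cytokine pulse: IL-6 10 ng/mL for pSTAT3, IL-4 1 ng/mL for pSTAT6. IC50 came from background-subtracted, DMSO-normalised signal, with categories A≤100 nM up to D>3 μM.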

CNC(=O)C[C@@H](Cc1ccc(OC)cc1)NC(=O)[C@@H]1CC[C@@H]2CCN(C(=O)c3n[nH]c4ccc(C)cc34)C[C@H](NC(=O)c3ccc4ccc(C(F)(F)P(=O)(O)O)cc4c3)C(=O)N21 [Compound 239, (difluoro(7-(((5S,8S,10aR)-8-(((R)-1-(4-methoxyphenyl)-4-(methylamino)-4-oxobutan-2-yl)carbamoyl)-3-(5-methyl-1H-indazole-3-carbonyl)-6-oxodecahydropyrrolo[1,2-a][1,5]diazocin-5-yl)carbamoyl)naphthalen-2-yl)methyl)phosphonic acid]
IC50 [1]: 0.1 to 1 µM
IC50 [2]: 0.1 to 1 µM

CCCC(=O)SCCOP(=O)(OCCSC(=O)CCC)C(F)(F)c1ccc2sc(C(=O)N[C@H]3CN(C(C)=O)CC[C@H]4CC[C@@H](C(=O)N(C)c5ccccc5)N4C3=O)cc2c1 [Compound 280, S,S′-(((((2-(((5S,8S, 10aR)-3-acetyl-8-(methyl (phenyl)carbamoyl)-6-oxodecahydro-pyrrolo[1,2-a][1,5]diazocin-5-yl)carbamoyl)benzo[b]thiophen-5-yl)difluoro-methyl)phos-phoryl)bis (oxy))bis (ethane-2,1-diyl))di-butanethioate]
IC50 [1]: 1 to 3 µM
IC50 [2]: 0.1 to 1 µM

COCCOC(=O)OCOP(=O)(OCOC(=O)OCCOC)C(F)(F)c1ccc2sc(C(=O)N[C@H]3CN(C(C)=O)CC[C@H]4CC[C@@H](C(=O)N(C)c5ccccc5)N4C3=O)cc2c1 [Compound 283, ((((2-(((5S,8S, 10aR)-3-acetyl-8-(methyl (phenyl)carbamoyl)-6-oxodecahydro-pyrrolo[1,2-a][1,5]diazocin-5-yl)carbamoyl)benzo[b]thiophen-5-yl)difluoro-methyl)phos-phoryl)bis(oxy)) bis(methylene) bis(2-methoxyethyl) bis(carbonate)]
IC50 [1]: > 3 µM
IC50 [2]: 1 to 3 µM

CC(=O)N1CC[C@H]2CC[C@@H](C(=O)N(C)c3ccccc3)N2C(=O)[C@@H](NC(=O)c2cc3cc(C(F)(F)P(=O)(OCOC(=O)OCC(C)C)OCOC(=O)OCC(C)C)ccc3s2)C1 [Compound 284, ((((2-(((5S,8S, 10aR)-3-acetyl-8-(methyl (phenyl)carbamoyl)-6-oxodecahydro-pyrrolo[1,2-a][1,5]diazocin-5-yl)carbamoyl)benzo[b]thiophen-5-yl)difluoro-methyl)phos-phoryl)bis(oxy)) bis(methylene) diisobutyl bis(carbonate)]
IC50 [1]: 0.1 to 1 µM
IC50 [2]: ≤ 0.1 µM

CCCOC(=O)OCOP(=O)(OCOC(=O)OCCC)C(F)(F)c1ccc2sc(C(=O)N[C@H]3CN(C(C)=O)CC[C@H]4CC[C@@H](C(=O)N(C)c5ccccc5)N4C3=O)cc2c1 [Compound 286, ((((2-(((5S, 8S,10aR)-3-acetyl-8-(methyl (phenyl)carbamoyl)-6-oxodecahydro-pyrrolo[1,2-a][1,5]diazocin-5-yl)carbamoyl)benzo[b]thiophen-5-yl)difluoro-methyl)phosphoryl)bis(oxy)) bis(methylene) dipropyl bis(carbonate)]
IC50 [1]: 0.1 to 1 µM
IC50 [2]: 0.1 to 1 µM

COCC(C)(C)OC(=O)OCOP(=O)(OCOC(=O)OC(C)(C)COC)C(F)(F)c1ccc2sc(C(=O)N[C@H]3CN(C(C)=O)CC[C@H]4CC[C@@H](C(=O)N(C)c5ccccc5)N4C3=O)cc2c1 [Compound 287, ((((2-(((5S, 8S,10aR)-3-acetyl-8-(methyl (phenyl)carbamoyl)-6-oxodecahydro-pyrrolo[1,2-a][1,5]diazocin-5-yl)carbamoyl)benzo[b]thiophen-5-yl)difluoro-methyl)phosphoryl)bis(oxy)) bis(methylene) bis(1-methoxy-2-methylpropan-2-yl) bis(carbonate)]
IC50 [1]: > 3 µM
IC50 [2]: > 3 µM

Source: US20250179103A1, “6-OXODECAHYDROPYRROLO[1,2-A][1,5]DIAZOCINE AND 6-OXODECAHYDRO-4H-PYRROLO[2,1-D][1,5]THIAZOCINE DERIVATIVES AS STAT3 AND STAT6 MODULATORS FOR THE TREATMENT OF CANCER AND INFLAMMATORY CONDITIONS” (Recludix Pharma, Inc., priority 2022, published 2025)
